Test results from US10167262B2, “Herbicidal substituted 3-arylpyrazoles” (FMC CORPORATION, priority 2014, dated 2019).

Tested on: cocklebur (common cocklebur, Xanthium strumarium)
Assay: Test E pre-/postemergence greenhouse test, plant response rating 0-100
Type: in vivo
Settings: Preemergence, scale 0 to 100
Method in brief: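 Rated visually against controls 14-21 days after treatment on a 0-100 scale (100 = complete control). Pre- and postemergence sprays used a non-phytotoxic solvent mixture with surfactant. Preemergence seeds were in silt loam; postemergence plants were in peat-based medium at the 1- to 4-leaf stage (2-18 cm).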

SMILES | Cocklebur plant response rating (500 g ai/ha) | Cocklebur plant response rating (31 g ai/ha) | Cocklebur plant response rating (62 g ai/ha) | Cocklebur plant response rating (125 g ai/ha) | Cocklebur plant response rating (250 g ai/ha)
O=C(c1ccccc1)c1cn(S(=O)(=O)CCl)nc1-c1cc(Cl)cc(Cl)c1 [Compound 1] | 0 |  |  |  | 
O=C(c1ccccc1)c1cn(S(=O)(=O)C(F)(F)F)nc1-c1cc(Cl)cc(Cl)c1 [Compound 2] |  | 0 | 0 | 0 | 0
O=C(c1ccccc1)c1cn(S(=O)(=O)CC(F)(F)F)nc1-c1cc(Cl)cc(Cl)c1 [Compound 3] |  | 0 |  |  | 0
O=C(c1ccccc1)c1cn(CO)nc1-c1cc(Cl)cc(Cl)c1 [Compound 15, [3-(3,5-dichlorophenyl)-1-(hydroxymethyl)-1H-pyrazol-4-yl]phenylmethanone] |  | 0 | 0 | 0 | 
